Results from paper PMC12495412, “Coumarin/nitrogen-bearing heterocyclic hybrid-loaded electrospun PMMA/PVP nanofibrous scaffolds for accelerating topical wound healing rates: synthesis and in vitro bio-evaluation” (RSC Advances, 2025).
In brackets after ≈: the same amount, converted by molar mass. Marks after values point to notes of the source that are not given here.

Experiments:
[1] = system: A549 cells; experiment: Wound healing scratch (anti-migration) assay; type: cell-based, human; conditions: IC50 doses, 48 h
Procedure: To assess the anti-migration inhibition capability of newly synthesized derivatives, a wound healing technique was employed. A549 cells were planted in 12-well plates and kept alive at 37 °C until they achieved 80–90% fluency. The cell monolayers were smashed with a sterile tip and exposed to the prepared derivatives at IC50 doses. At 0 and 48 h of treatment, the wound closure area was captured and calculated by imaging analysis with the Cell-Sens software (Olympus, Japan).

[2] = system: Wi-38 cells; experiment: MTT cytotoxicity assay, normal cells; type: cell-based; conditions: 48 h
Description: (§1) MTT assay: the normal cell line (Wi-38), colon cancer (Caco-2), lung cancer (A549), and breast cancer (MDA) cell lines were sourced from ATCC, USA. All different cell lines were cultivated and preserved in DMEM medium (SERANA, Germany), accompanied by 10% FBS (Gibco, USA) and 1% Pen/Strep solution (Lonza, USA). The newly prepared derivatives at various doses were considered for their anticancer activity and their safety on normal cells, applying MTT (3-[4, 5-dimethylthiazol]-2, 5-diphenyltetrazolium bromide) methods.[22] At first, all normal and cancer cell lines (1.0 ×10^4) were inoculated in 4 antiseptic 96-well tissue culture microplates and incubated for 24 h in a CO2 incubator. After cell attachments, the prepared derivatives were added to both normal Wi-38 cells at diverse concentrations of (6.25–200 μg mL^−1, 2-fold) and cancer cells at different concentrations of (3.125–100 μg mL^−1, 2-fold) in triplicate and incubated for another 48 h at 37 °C in a CO2 incubator with an adjusted concentration of 5%. After that, the treated cells were cleaned three times with PBS to remove debris and dead cells. Next, 200 μL of 0.5 mg mL^−1 MTT dye solution in PBS was mixed in each well, and the cells were further kept for 3 h at 37 °C in a 5% CO2 incubator. After that, MTT was removed and 200 μL of DMSO was added to each well. The optical density (OD) was recorded at 570 nm via a microplate reader (B.M.G. LabTech, Germany). Basic cells (untreated) were utilized as negative control cells, and 5-fluorouracil (5-FU) was included as a standard chemotherapy drug. The qualified cell viability (%) was evaluated as in equation (eqn (1)):1 Relative cell viability (%) = […] A1 is the OD of the examined derivative, A0 is the OD of the standard, and AU is the OD of the untreated cells.
(§2) Anticancer activity assay: the anticancer effect of each derivative was assessed by evaluating the half-maximal inhibitory concentration (IC50) value via the GraphPad Prism 7.0 software. However, SI (selective index) values of each derivative were estimated by splitting the IC50 value of healthy cells by the IC50 value of malignant cells, as previously reported.[23] The effects of the created derivatives on the morphology of MDA cells were evaluated at IC50 doses and captured by phase-contrast microscopy (Olympus, Germany) in comparison to untreated control cells.

[3] = system: all applied pathogens; experiment: Agar-well diffusion of synthesized compounds, whole panel; type: cell-based
Description: The antimicrobial activity of the prepared compounds was estimated through an agar-well diffusion method as adapted from the modified Kirby–Bauer protocol.[24] In this test, microbial pathogens were applied, including Staphylococcus aureus ATCC 25923 (S. aureus), Streptococcus mutans ATCC 25175 (S. mutans), Bacillus cereus ATCC 19637 (B. cereus), Bacillus aureus ATCC 25923 (B. aureus), Bacillus epidermidis ATCC 14990 (B. epidermidis), and Bacillus subtilis ATCC 11774 (B. subtilis) as Gram-positive bacteria, and Pseudomonas aeruginosa ATCC 27853 (P. aeruginosa), Klebsiella pneumonia ATCC 13883 (K. pneumonia), and Salmonella typhimurium ATCC 14028 (S. typhimurium), Salmonella pneumoniae ATCC 10031(S. pneumoniae), Escherichia coli ATCC 10536 (E. coli), and Salmonella paratyphi ATCC 9150 (S. paratyphi) as Gram-negative bacteria. Additionally, Candida albicans (ATCC 10231), Candida krusei ATCC 6258 (C. krusei), Candida glabrata ATCC 66032 (C. glabrata), andCandida parapsilosis ATCC 22019 (C. parapsilosis) were applied as models of unicellular fungi. The pre-inoculation cultures of the pathogens were prepared on Muller–Hinton broth and cultivated for 24 h at 37 °C. The agar-well test was prepared on Muller–Hinton agar with 100 μL of each pathogen pre-culture (0.5 McFarland conc.) and uniformly distributed on the plate surface. Under aseptic conditions, six wells were created on the agar surface using a sterile corkborer (9 mm). To each well, 100 μL of the prepared compound (10 mg mL^−1) was separately inserted into each plate. All plates were incubated for 24 h at 37 °C; the established inhibition zones (Halo-zones) surrounding the wells indicated positive antimicrobial activity and were stated as the radius of the inhibition zone (mm).

[4] = system: Caco-2 cells; experiment: MTT anticancer assay; type: cell-based; conditions: for SI Caco-2: IC50 Wi-38 / IC50 Caco-2
Description: as §1, §2

[5] = system: A549 cells; experiment: MTT anticancer assay; type: cell-based, human; conditions: 48 h
Description: as §1, §2

[6] = system: MDA cells; experiment: MTT anticancer assay; type: cell-based, human; conditions: 48 h
Description: as §1, §2

[7] = system: Staphylococcus epidermidis; experiment: Agar-well diffusion of formulations; type: cell-based; conditions: 50 μL per 5 mm well, 37 °C
Procedure: (§3) The antimicrobial qualities of formulations were evaluated in this study using a variety of techniques. The formulations including 8 PMMA and 2 PVP, which contained varying doses of drug A (0.5% = T1, 1% = T2, 3% = T3, and 5% = T4) or drug B (0.5% = T5, 1% = T6, 3% = T7, and 5% = T8), as well as a combination of 2.5% of drug A and 2.5% of drug B (T9) were assessed. The tested human pathogens were cultivated in a nutritional broth medium containing 0.5% peptone, 0.3% yeast extract, 0.2% beef extract, 0.1% glucose, and 0.5% NaCl in accordance with 0.5 McFarland turbidity criteria.[25] To carry out the agar-well diffusion analysis, microbial cultures (100 μL) were spread on nutrient agar plates using sterile cotton swabs. After drilling each well with a sterile cork-borer of 5 mm in diameter, 50 μL of the tested formulations and the control (composed of 8 PMMA and 2 PVP) were loaded. Agar plates were thereafter left to incubate at 37 °C for an entire day. The inhibitory zone that surrounds each well was measured in millimeters (mm) using a ruler.[26]

[8] = system: Staphylococcus aureus; experiment: Agar-well diffusion of formulations; type: cell-based; conditions: 50 μL per 5 mm well, 37 °C
Procedure: as §3

[9] = system: Candida krusei; experiment: Agar-well diffusion of formulations; type: cell-based; conditions: 50 μL per 5 mm well, 37 °C
Procedure: as §3

[10] = system: Pseudomonas aeruginosa; experiment: Agar-well diffusion of formulations; type: cell-based; conditions: 50 μL per 5 mm well, 37 °C
Procedure: as §3

[11] = system: Klebsiella pneumoniae; experiment: Agar-well diffusion of formulations; type: cell-based; conditions: 50 μL per 5 mm well, 37 °C
Procedure: as §3

[12] = system: Candida glabrata; experiment: Agar-well diffusion of formulations; type: cell-based; conditions: 50 μL per 5 mm well, 37 °C
Procedure: as §3

[13] = system: Escherichia coli; experiment: Agar-well diffusion of formulations; type: cell-based; conditions: 50 μL per 5 mm well, 37 °C
Procedure: as §3

[14] = system: Salmonella paratyphi; experiment: Agar-well diffusion of formulations; type: cell-based; conditions: 50 μL per 5 mm well, 37 °C
Procedure: as §3

[15] = system: Bacillus cereus; experiment: Agar-well diffusion of formulations; type: cell-based; conditions: 50 μL per 5 mm well, 37 °C
Procedure: as §3

[16] = system: Bacillus subtilis; experiment: Agar-well diffusion of formulations; type: cell-based; conditions: 50 μL per 5 mm well, 37 °C
Procedure: as §3

[17] = system: Candida parapsilosis; experiment: Agar-well diffusion of formulations; type: cell-based; conditions: 50 μL per 5 mm well, 37 °C
Procedure: as §3

[18] = system: Candida albicans; experiment: Agar-well diffusion of formulations; type: cell-based; conditions: 50 μL per 5 mm well, 37 °C
Procedure: as §3

[19] = system: multidrug-resistant human pathogens; experiment: Agar-well diffusion of formulations, whole panel; type: cell-based; conditions: all human pathogens investigated
Procedure: as §3

[20] = system: Staphylococcus epidermidis; experiment: Biofilm inhibition test (spectrophotometric); type: cell-based; conditions: 24 h, 37 °C, OD vs untreated
Procedure: (§4) Additionally, a spectrophotometric antibiofilm assay was utilized to determine whether the evaluated formulations might inhibit the growth of pathogens. Fresh nutritional broth was inoculated with each pathogen separately, and this mixture was then incubated at 37 °C at 200 rpm. The optical density (OD) at 600 nm was measured over a 6 h incubation period, allowing for an estimation of the starting microbe's exponential phase (3 × 10^7 CFU mL^−1). To produce treated cultures, 900 μL of planktonic cultures were collected aseptically with 100 μL of each formulation. Furthermore, untreated (formula-free) cultures of pathogens were grown as controls. The cultures were then incubated for 24 hours at 200 rpm and 37 °C. Through spectroscopic evaluation of microbial turbidity, the inhibitory effects of the examined formulations were determined.[27] By comparing the OD of the treated sample with the matching controls, anti-biofilm percentages for each formula were computed.[28]

[21] = system: Staphylococcus aureus; experiment: Biofilm inhibition test (spectrophotometric); type: cell-based; conditions: 24 h, 37 °C, OD vs untreated
Procedure: as §4

[22] = system: Candida krusei; experiment: Biofilm inhibition test (spectrophotometric); type: cell-based; conditions: 24 h, 37 °C, OD vs untreated
Procedure: as §4

[23] = system: Pseudomonas aeruginosa; experiment: Biofilm inhibition test (spectrophotometric); type: cell-based; conditions: 24 h, 37 °C, OD vs untreated
Procedure: as §4

[24] = system: Klebsiella pneumoniae; experiment: Biofilm inhibition test (spectrophotometric); type: cell-based; conditions: 24 h, 37 °C, OD vs untreated
Procedure: as §4

[25] = system: Candida glabrata; experiment: Biofilm inhibition test (spectrophotometric); type: cell-based; conditions: 24 h, 37 °C, OD vs untreated
Procedure: as §4

[26] = system: Escherichia coli; experiment: Biofilm inhibition test (spectrophotometric); type: cell-based; conditions: 24 h, 37 °C, OD vs untreated
Procedure: as §4

[27] = system: Salmonella paratyphi; experiment: Biofilm inhibition test (spectrophotometric); type: cell-based; conditions: 24 h, 37 °C, OD vs untreated
Procedure: as §4

[28] = system: Bacillus cereus; experiment: Biofilm inhibition test (spectrophotometric); type: cell-based; conditions: 24 h, 37 °C, OD vs untreated
Procedure: as §4

[29] = system: Bacillus subtilis; experiment: Biofilm inhibition test (spectrophotometric); type: cell-based; conditions: 24 h, 37 °C, OD vs untreated
Procedure: as §4

[30] = system: Candida parapsilosis; experiment: Biofilm inhibition test (spectrophotometric); type: cell-based; conditions: 24 h, 37 °C, OD vs untreated
Procedure: as §4

[31] = system: Candida albicans; experiment: Biofilm inhibition test (spectrophotometric); type: cell-based; conditions: 24 h, 37 °C, OD vs untreated
Procedure: as §4

Question: `O=C(Nc1ccc(Nc2c3ccccc3nc3ccccc23)cc1)c1cc2ccccc2oc1=O` [Compound B, N-(4-(acridin-9-ylamino)phenyl)-2-oxo-2H-chromene-3-carboxamide] was tested. Which Migration inhibition [1] did it give?
Answer: The Migration inhibition was 87.21%.

Question: And the IC50 ([2]; WI-38, normal human lung fibroblast cells)?
Answer: The IC50 was 126 ± 10.9 µg/mL (≈ 276 µM).

Question: What about the “Antimicrobial activity” value [3] of the same compound?
Answer: Its value is “no antimicrobial activity”.

Question: What about the IC50 ([4]; Homo sapiens, Caco-2, colon carcinoma cells, MTT, 48 h) of the same compound?
Answer: The IC50 was 4.87 ± 1.69 µg/mL (≈ 10.6 µM).

Question: What about the “SI Caco-2” value [4] of the same compound?
Answer: The value was 25.93 ± 2.25.

Question: What about the IC50 ([5]; Homo sapiens, A549, lung carcinoma cells) of the same compound?
Answer: Its IC50 is 6.98 ± 1.99 µg/mL (≈ 15.3 µM).

Question: What about the IC50 ([6]; Homo sapiens, Breast carcinoma cell) of the same compound?
Answer: The IC50 was 4.27 ± 0.46 µg/mL (≈ 9.33 µM).

Question: For `Cc1ccc(-c2nnc(Nc3ccc(N)cc3)c3ccccc23)cc1` [Compound C1], which “IC50 Wi-38” value ([2]; normal human lung fibroblast cells) is on record?
Answer: The value was 192.7 ± 16.79 µg/mL (≈ 590 µM).

Question: What about the “SI Caco-2” value [4] of the same compound?
Answer: The value was 15.94 ± 1.39.

Question: What about the “IC50 Caco-2” value ([4]; colon carcinoma cells, MTT, 48 h) of the same compound?
Answer: The value was 12.09 ± 1.42 µg/mL (≈ 37 µM).

Question: What about the “IC50 A549” value ([5]; lung carcinoma cells) of the same compound?
Answer: Its value is 21.01 ± 2.05 µg/mL (≈ 64.4 µM).

Question: And the “IC50 MDA” value ([6]; breast carcinoma cells)?
Answer: The value was 13.98 ± 0.57 µg/mL (≈ 42.8 µM).

Question: What does the source list for `O=C(Nc1ccc(Nc2ccnc3cc(Cl)ccc23)cc1)c1cc2ccccc2oc1=O` [Compound C2]?
Answer: Inhibition zone diameters [7]: 0 mm; Inhibition zone diameters [8]: 0 mm; Inhibition zone diameters [9]: 0 mm; Inhibition zone diameters [10]: 0 mm; Inhibition zone diameters [11]: 0 mm; Inhibition zone diameters [12]: 0 mm; Inhibition zone diameters [13]: 0 mm; Inhibition zone diameters [14]: 0 mm; Inhibition zone diameters [15]: 0 mm; Inhibition zone diameters [16]: 0 mm; Inhibition zone diameters [17]: 0 mm; Inhibition zone diameters [18]: 0 mm; Antimicrobial effect [19]: neither C1 nor C2 controls have any effect; Biofilm reduction [20]: 8.29 ± 0.19^i %; Biofilm reduction [21]: 11.31 ± 0.17^i %; Biofilm reduction [22]: 5.24 ± 1.22^i %; Biofilm reduction [23]: 3.65 ± 0.47^i %; Biofilm reduction [24]: 2.03 ± 0.77^i %; Biofilm reduction [25]: 6.48 ± 1.87^i %; Biofilm reduction [26]: 8.31 ± 0.75^i %; Biofilm reduction [27]: 7.24 ± 0.38^i %; Biofilm reduction [28]: 10.32 ± 0.19^i %; Biofilm reduction [29]: 8.41 ± 0.31^i %; Biofilm reduction [30]: 3.87 ± 0.14^i %; Biofilm reduction [31]: 3.21 ± 0.99^i %
